{
  "source": "patent US20230128137A1",
  "about": "“BENZO FIVE-MEMBERED CYCLIC COMPOUND” (MEDSHINE DISCOVERY INC., priority 2020, published 2023)",
  "key": {"[1]": {"test": "Liver microsome metabolic stability in vitro, beagle dog", "type": "in vitro ADME", "settings": "beagle dog liver microsomes", "experimental": "(§1) 3.2 preparation of nicotinamide adenine dinucleotide phosphate cofactor solution: an appropriate amount of NADPH powder was weighed and diluted into 10 mM magnesium chloride solution (working solution concentration: 10 unit/mL; final concentration of reaction system: 1 unit/mL);\n(§2) 3.3 preparation of liver microsomes: an appropriate concentration working solution of liver microsomes (human, SD rat, CD-1 mouse, beagle dog) was prepared in 100 mM potassium phosphate buffer;\n(§3) 3.4 preparation of quenching solution: cold (4° C.) acetonitrile containing 200 ng/mL tolbutamide and 200 ng/mL labetalol as internal standard (IS) was used as quenching solution;\n(§4) 3.5 experimental operation:\n(§5) a. empty “incubation” plates T60 and NCF60 were preheated for 10 minutes;\n(§6) b. the liver microsomes were diluted to 0.56 mg/mL with 100 mM phosphate buffer;\n(§7) c. 445 μL of microsomal working solution (0.56 mg/mL) was transferred to the preheated “incubation” plates T60 and NCF60, and then the“incubation” plates T60 and NCF60 were preincubated for 10 min with continuous shaking at 37° C. 54 μL of liver microsomes were transferred to a blank plate, and 6 μL of NAPDH cofactor was added to the blank plate, and then 180 μL of quenching solution was added thereto;\n(§8) e. for NCF60 plate, 50 μL of buffer was added thereto and the mixture was fully mixed for three times. Timing was started; the plate was shaken at 37° C. for 60 minutes;\n(§9) f. in “quenching” plate TO, 180 μL of quenching solution and 6 μL of NAPDH cofactor were addded to make sure that the plate was cooled down to prevent evaporation;\n(§10) g. for T60 plates, the mixture was fully mixed for three times, and 54 μL of mixture was immediately transferred to the “quenching” plate at the 0 min time point. 44 μL of NAPDH cofactor was then added to the culture plate (T60). Timing was started; the plate was shaken at 37° C. for 60 minutes;\n(§11) h. at 5, 10, 20, 30 and 60 min, 180 μL of quenching solution was added to the “quenching” plate, and the mixture was mixed for one time, and 60 μL of sample was continuously transferred from the T60 plate to the “quenching” plate at each time point;\n(§12) i. for NCF60: the mixture was mixed for one time, and 60 μL of sample was transferred from the NCF60 culture dish to the “quenching” plate containing quenching solution at 60 minutes time point;\n(§13) j. all sampling plates were shaked for 10 minutes, then centrifuged at 4000 rpm for 20 minutes at 4° C.;\n(§14) k. 60 μL of supernatant was transferred into 180 μL of HPLC water and stirred with a plate shaker for 10 min;\n(§15) 1. before LC-MS/MS analysis, each bioanalysis plate was sealed and shaked for 10 minutes."}, "[2]": {"test": "Liver microsome metabolic stability in vitro, SD rat", "type": "in vitro ADME", "settings": "SD rat liver microsomes", "experimental": "as §1, §2, §3, §4, §5, §6, §7, §8, §9, §10, §11, §12, §13, §14, §15"}},
  "data": [
    {"smiles": "CC1(C)CCC(CN2CCN(c3ccc(C(=O)NS(=O)(=O)c4cc([N+](=O)[O-])c(NCC5CCOCC5)c5[nH]cnc45)c(Oc4cnc5[nH]ccc5c4)c3)CC2)=C(c2ccc(Cl)cc2)C1", "note": "[Compound 2]", "values": [
      {"measurement": "CLint scaled at 1 µM", "setting": "[1]", "value": 26.8, "unit": "mL/min/kg"},
      {"measurement": "half-life at 1 µM", "setting": "[1]", "value": 74.4, "unit": "min"},
      {"measurement": "Remaining (T = 60 min)", "setting": "[1]; 60 min incubation", "value": 52, "unit": "%"},
      {"measurement": "CLint scaled at 1 µM", "setting": "[2]", "value": 23.6, "unit": "mL/min/kg"},
      {"measurement": "half-life at 1 µM", "setting": "[2]", "value": 106, "unit": "min"},
      {"measurement": "Remaining (T = 60 min)", "setting": "[2]; 60 min incubation", "value": 64.1, "unit": "%"}
    ]}
  ]
}
